According to ChEMBL document CHEMBL1159285, “Identification of 3-hydroxy-3-methylglutaric acid (HMG) as a hypoglycemic principle of Spanish moss (Tillandsia usneoides)” (J Nat Prod, 1995):
Where a name gives a salt, the structure may show the parent alone.

Key:
[1] = system: Mus musculus; assay: Hypoglycemic activity in Swiss-Webster mouse assessed as change plasma glucose level at 250 mg/kg, ip after 4 hrs; type: functional; conditions: route intraperitoneal
[2] = system: Artemia; assay: Toxicity in brine shrimp; type: organism-based; conditions: in vivo
[3] = species: Homo sapiens; assay: Toxicity in patient with familial hypercholesterolemia at 750 to 2250 mg/day in 3 divided doses for 8 weeks; type: organism-based; conditions: in vivo, 1344 h
[4] = Acute toxicity in po dosed mouse; type: organism-based; conditions: in vivo
[5] = species: Homo sapiens; assay: Antihypercholesterolemic activity in patient with familial hypercholesterolemia assessed as decrease in plasma cholesterol at 2250 mg/day in 3 divided doses for 8 weeks; type: functional; parameters: scale not given: the % may be the effect or the level left
[6] = system: Mus musculus; assay: Hypoglycemic activity in Swiss-Webster mouse assessed as change plasma glucose level at 125 mg/kg, ip after 4 hrs; type: functional; conditions: route intraperitoneal
[7] = system: Mus musculus; assay: Hypoglycemic activity in Swiss-Webster mouse assessed as change plasma glucose level at 62.5 mg/kg, ip after 4 hrs; type: functional; conditions: route intraperitoneal
[8] = Acute toxicity in ip dosed mouse; type: organism-based; conditions: in vivo
[9] = species: Homo sapiens; assay: Antihypercholesterolemic activity in patient with familial hypercholesterolemia assessed as decrease in plasma cholesterol at 3000 mg/day in 3 divided doses for 8 weeks; type: functional; parameters: scale not given: the % may be the effect or the level left

Compound | Activity [1] | LC50 [2] | also measured
COC(=O)C(O)(CC(=O)O)CC(=O)O | -7.4% |  | 
CCOC(=O)C(O)(CC(=O)O)CC(=O)O | -6.6% |  | 
COC(=O)CC(O)(CC(=O)OC)C(=O)OC | 29% |  | 
COc1cc(-c2oc3cc(O[C@@H]4O[C@H](CO)[C@@H](O)[C@H](O)[C@H]4O)c(OC)c(O)c3c(=O)c2OC)cc(OC)c1O | -1% | 420 ppm | 
CCOC(=O)CC(O)(CC(=O)O)C(=O)OCC (stereo not drawn) | -17.3% |  | 
COC(=O)CC(O)(CC(=O)O)C(=O)OC (stereo not drawn) | 35.8% |  | 
O=C(O)CC(O)(CC(=O)O)C(=O)O [CITRIC ACID] | 47.3% | 50 ppm | 
Cc1cn([C@H]2C[C@H](O)[C@@H](CO)O2)c(=O)[nH]c1=O [DOXRIBTIMINE] | 25.5% | > 1000 ppm | 
CC(O)(CC(=O)O)CC(=O)O [MEGLUTOL] | -41.7% | 228 ppm | Activity [3]: Non-toxic; LD50 [4]: 7330 mg/kg; Activity [5]: 11%; Activity [6]: -21%; Activity [7]: 7.9%; LD50 [8]: 3230 mg/kg; Activity [9]: 13%
O=C(O)CCC(=O)O [SUCCINIC ACID] | 9.9% | 40 ppm | 
CCOC(=O)CC(O)(CC(=O)OCC)C(=O)OCC [TRIETHYL CITRATE] | -13.6% |  | 
